The record followed here is ChEMBL document CHEMBL6109117, “Synthesis of an RBM39 Degrader That Downregulates CEP192 and Induces Disorganized Spindle Structures” (J Med Chem, 2025).

This assay relates to CEM/C1. Nature of the assay: Induction of RBM39 degradation in human CEM/C1 cells incubated for 24 hrs by Western blot analysis. The assay is classed as cell-based. (A western blot detects proteins with antibodies after separation by electrophoresis.)

For the compound `Cc1ccc(NS(=O)(=O)c2cccc(NC(=O)C(=O)N3CCC[C@@H]3CO)c2)c2[nH]cc(C#N)c12`, the Activity entry was “Dose-dependent-effect”.
